In the data set the test system is Rattus norvegicus. The following applies: for NOAEL (% diet): duration: 29 days.
Setting [1] is: acute, oral, gavage, Sprague-Dawley.
Where [2] appears, read: subchronic, oral, gavage, Sprague-Dawley.
[3] abbreviates: reproduction developmental, duration: 32 days, oral, gavage, Sprague-Dawley, generation: F0.
[4] abbreviates: reproduction developmental, duration: 41 days, oral, gavage, F, Crj:CD.
The mark [5] stands for this setting: reproduction developmental, duration: 41 days, oral, gavage, M, Crj:CD.

Values joined by “and” are separate entries in the source; they are usually repeats but may differ in a detail not shown here. Equal entries are not always repeated. A value given as a limit tells only on which side of the number the result lay.

Broadly, the LD50 is the dose at which mortality reaches 50%. Low values mean greater toxicity, high ones lower toxicity. With `CC(C)(C)CC(C)(C)N` [tert-Octylamine], under “acute, oral, gavage, CRL:CD BR”, the LD50 amounted to 218 mg/kg.
As a reminder, the NOAEL is the highest tested level that showed no adverse finding. In general, LOAEL refers to the lowest dose or exposure tested at which an adverse effect was seen. Under setting [1], `CCCCCCCCCCCCCOC(=O)c1ccccc1C(=O)OCCCCCCCCCCCCC` [Ditridecyl phthalate] came in with an LD50 of more than 2000 mg/kg. Besides, the NOAEL (developmental, oral, gavage, Sprague-Dawley) stood at 250 mg/kg-day; the NOAEL (reproduction developmental, oral, gavage, F, Sprague-Dawley) was 50 mg/kg-day; the NOAEL (reproduction developmental, oral, gavage, M, Sprague-Dawley) is 250 mg/kg-day; the NOAEL (reproduction developmental, oral, gavage, Sprague-Dawley, generation: F1) came to 250 mg/kg-day; the NOAEL under setting [2] turned out to be 10 mg/kg-day. Under setting [2], this molecule returned an LOAEL of 50 mg/kg-day.
Consider `CCCCCCCCCCCCCl` [1-Chlorododecane], for which the LD50 under setting [1] was more than 2000 mg/kg. Under setting [3], this molecule registered an LOAEL of 300 mg/kg-day and an NOAEL of 100 mg/kg-day. The LOAEL (reproduction developmental, duration: 32 days, oral, gavage, Sprague-Dawley, generation: F1) was found to be 1000 mg/kg-day.
Take `C=C(C)COc1ccccc1O` [2-[(2-methyl-2-propenyl)oxy]phenol]: the LD50 under setting [1] is 2840 mg/kg and 2940 mg/kg and 3220 mg/kg. This molecule showed an NOAEL (reproduction developmental, oral, gavage, Sprague-Dawley) of more than 720 mg/kg-day.
`O=C(O)C1CCC(C(=O)O)CC1` (configuration not stated) [1,4-Cyclohexanedicarboxylic acid] gave an LD50 under setting [1] of 2080 mg/kg. Moreover, the “NOAEL (% diet)” value was determined as 1 (short-term, oral, diet, F, Sprague-Dawley) and 1 (short-term, oral, diet, M, Sprague-Dawley). In addition, the NOAEL is, setting by setting: (subchronic, duration: 90 days, oral, gavage, F, Wistar) 300 mg/kg-day; (subchronic, duration: 90 days, oral, gavage, M, Wistar) 300 mg/kg-day.
For the molecule `CCCCCCCCCCCCOCCCNCCCN` [N1-[3-(Dodecyloxy)propyl]-1,3-propanediamine], the LD50 (acute, oral, gavage) is 378 mg/kg and 299 mg/kg.
As for `O=C(OCCOCCOC(=O)c1ccccc1)c1ccccc1` [Diethylene glycol dibenzoate], the NOAEL runs as follows: (developmental, duration: 38 weeks, oral, diet, Sprague-Dawley) 3300 ppm; (reproduction developmental, duration: 38 weeks, oral, diet, F, Sprague-Dawley) 10000 ppm; (reproduction developmental, duration: 38 weeks, oral, diet, Sprague-Dawley, generation: F0) 10000 ppm.
Regarding `CC/C=C\C#N` [(2Z)-2-Pentenenitrile], the LC50 (acute, inhalation, CRL:CD BR) is 2820 mg/m3. Besides, the NOAEL was found to be 995 mg/m3 (short-term, duration: 28 days, inhalation, CRL:CD BR); 9.95 mg/m3 (short-term, duration: 28 days, inhalation, F, CRL:CD BR); 9.95 mg/m3 (short-term, duration: 28 days, inhalation, M, CRL:CD BR).
Where the note is “acute, oral, Sprague-Dawley”, `CC(C)CCCCCCOC(=O)c1ccc(C(=O)OCCCCCCC(C)C)c(C(=O)OCCCCCCC(C)C)c1` [Triisononyl trimellitate] registered an LD50 of more than 10000 mg/kg.
Regarding `CCCCCCCCCCCCCCCCCC(=O)OCCO` [2-Hydroxyethyl octadecanoate], the LD50 (acute, oral, gavage, Wistar) is more than 5000 mg/kg.
In the case of `COCO` [Methoxymethanol], the LD50 (acute, oral, gavage, Crj:CD) was found to be 1270 mg/kg. Besides, the NOAEL worked out at 300 mg/kg-day (developmental, oral, gavage, Crj:CD); 60 mg/kg-day under setting [4]; 12 mg/kg-day under setting [5]; 300 mg/kg-day (reproduction developmental, oral, gavage, Crj:CD); 60 mg/kg-day (reproduction developmental, oral, gavage, F, Crj:CD); 12 mg/kg-day (reproduction developmental, oral, gavage, M, Crj:CD). The molecule further returned an LOAEL under setting [4] of 300 mg/kg-day and an LOAEL under setting [5] of 60 mg/kg-day.
On to `CCCCCCCCCCCCCCCCCCN(C)C` [N,N-Dimethyl-1-octadecanamine], for which the LD50 (acute, oral, gavage) was found to be 2120 mg/kg.
Consider `C=C(C)C(=O)OCC[N+](C)(C)C.[Cl-]` [(2-(Methacryloyloxy)ethyl)trimethylammonium chloride], for which the LD50 under setting [1] was more than 2000 mg/kg. For the same molecule, the NOAEL (short-term, duration: 28 days, oral, diet, F, Crj:CD) was more than 1000 mg/kg-day and the NOAEL (short-term, duration: 28 days, oral, diet, M, Crj:CD) is more than 1000 mg/kg-day.

The values above are taken from EPA's ToxValDB 9.5.
